Laboratory results as given in patent US20230295131A1, “INHIBITORS OF RHO-ASSOCIATED COILED-COIL KINASE” (Angion Biomedica Corp., priority 2020, published 2023).

Columns and labels:
[1] = system: Hepatic stellate cells; test: Gel contraction assay (TGFβ1-induced); assay type: cell-based; conditions: test compound at 100 μM, 1 hour pretreatment, TGFβ1 24 hours
Description: Hepatic stellate cells were plated onto collagen coated plates and pretreated with test compound (at 100 μM) for 1 hour. TGFβ1 is then added for 24 hours, and images are taken.

[2] = system: CTGF in mouse embryonic fibroblasts (MEFs); test: TGFβ1-induced CTGF production assay; assay type: cell-based; conditions: 1 hour pretreatment before TGFβ1, real time PCR
Description: Mouse embryonic fibroblasts (MEFs) were isolated, starved overnight, then pretreated with Ex. 65 or Ex. 93 for 1 hour prior to addition of TGFβ1. RNA was isolated from cells and real time PCR was performed for CTGF.

[3] = molecular target: T1, ROCK1 (Homo sapiens, UniProt Q13464); test: ROCK1 kinase binding affinity, DiscoverX KINOMEscan KdELECT; conditions: 11-point 3-fold dilution
T1 construct: T7 phage fusion (kinase-tagged phage) or DNA tag for qPCR detection
T1 sequence (Q13464 whole entry, the tested form may be a part): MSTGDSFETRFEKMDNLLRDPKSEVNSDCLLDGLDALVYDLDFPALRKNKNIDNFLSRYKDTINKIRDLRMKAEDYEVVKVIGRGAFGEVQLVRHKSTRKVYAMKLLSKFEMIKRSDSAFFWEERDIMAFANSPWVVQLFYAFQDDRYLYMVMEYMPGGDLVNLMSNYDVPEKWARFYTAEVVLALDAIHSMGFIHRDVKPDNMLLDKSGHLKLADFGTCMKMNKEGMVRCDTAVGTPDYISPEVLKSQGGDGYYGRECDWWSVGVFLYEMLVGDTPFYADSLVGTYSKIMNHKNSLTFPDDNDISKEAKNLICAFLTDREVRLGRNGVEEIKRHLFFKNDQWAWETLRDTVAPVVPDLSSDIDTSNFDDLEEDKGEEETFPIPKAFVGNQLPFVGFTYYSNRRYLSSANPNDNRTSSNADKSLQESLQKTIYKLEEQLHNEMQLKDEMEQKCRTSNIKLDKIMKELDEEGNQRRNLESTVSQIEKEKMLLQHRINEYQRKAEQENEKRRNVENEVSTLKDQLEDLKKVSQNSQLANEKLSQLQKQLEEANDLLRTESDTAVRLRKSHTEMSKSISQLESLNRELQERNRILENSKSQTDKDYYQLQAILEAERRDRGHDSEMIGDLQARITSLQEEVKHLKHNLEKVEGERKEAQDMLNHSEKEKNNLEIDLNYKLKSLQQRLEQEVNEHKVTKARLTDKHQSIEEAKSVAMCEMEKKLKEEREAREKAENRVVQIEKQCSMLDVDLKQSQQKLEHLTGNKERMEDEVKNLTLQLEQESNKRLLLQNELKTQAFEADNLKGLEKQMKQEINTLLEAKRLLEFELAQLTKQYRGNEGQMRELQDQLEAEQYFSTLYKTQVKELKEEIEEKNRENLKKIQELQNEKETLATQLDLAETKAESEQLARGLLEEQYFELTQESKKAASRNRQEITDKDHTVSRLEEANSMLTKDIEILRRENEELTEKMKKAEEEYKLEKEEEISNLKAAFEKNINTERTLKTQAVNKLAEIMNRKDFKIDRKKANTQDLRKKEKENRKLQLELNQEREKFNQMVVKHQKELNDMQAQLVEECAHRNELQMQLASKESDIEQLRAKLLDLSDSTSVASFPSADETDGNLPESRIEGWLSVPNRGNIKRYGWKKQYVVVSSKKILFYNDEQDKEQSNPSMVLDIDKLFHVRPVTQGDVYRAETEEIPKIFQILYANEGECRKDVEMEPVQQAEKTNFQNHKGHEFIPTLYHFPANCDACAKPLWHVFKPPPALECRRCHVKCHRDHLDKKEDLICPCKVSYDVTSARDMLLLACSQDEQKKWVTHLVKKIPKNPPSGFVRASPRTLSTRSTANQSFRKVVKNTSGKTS
How it was run: (§1)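 Competition binding of DNA- or phage-tagged kinase to immobilised ligand beads, with bound kinase quantified by qPCR of eluates.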

[4] = system: fast-food diet (FFD)+CCl4+sugar-induced NASH; test: Fast-food diet (FFD)+CCl4+sugar-induced NASH model; assay type: in vivo, mice; conditions: 30 mg/kg, IP, twice-daily for two weeks; for hepatic lipid accumulation (liver steatosis): FIG. 3; for NAFLD activity score (NAS): FIG. 4
Description: (§2) 2. Pharmacodynamic and Efficacy Profile in Hepatic Diseases: • The activity of Ex. 65 was evaluated in a model of fast-food diet (FFD)+CCl4+sugar-induced NASH. Adult male mice were randomized to vehicle of 30 mg/kg test compound, IP, twice-daily for two weeks. Treatment with Ex. 65 reduced hepatic lipid accumulation (FIG. 3) and NAFLD activity score (NAS; FIG. 4).

[5] = Pharmacokinetic profile, compound levels in the vena cava; assay type: in vivo, C57BL/6 Mouse; conditions: po 10 mg/kg in 0.5% CMC suspension
Description: (§3) For assessing compound levels in the vena cava, 10-11 week old male C57BL/6 animals were dosed orally with 10 mg/kg of Ex. 65 (mesylate salt) in 0.5% carboxymethyl cellulose (CMC) in water. Serum samples were collected from the portal vein at 15, 30, 60 120, 240, 360 and 480 minutes after dosing. Samples were analyzed for compound concentration by LC-MS.

[6] = Pharmacokinetic profile, compound levels in the portal vein; assay type: in vivo, C57BL/6 Mouse
Description: as §3, with “portal vein, 7-8” for “vena cava, 10-11”, “mg/kg compound” for “mg/kg”, “120” for “120, 240, 360”, “240” for “480”, “compound” for “compound concentration”

[7] = system: miRNAs in hepatic homogenates; test: miRNA quantification in liver homogenates of the NASH model; assay type: in vivo, mice
Description: as §2
MicroRNAs (miRNAs) from liver homogenates from the study described above were quantified. Compared to healthy livers, 65 differentially expressed miRNAs from NASH livers were identified, of which 22 were corrected by treatment with Ex. 65 (see Table 6).

[8] = molecular target: T2, ROCK2 (Homo sapiens, UniProt O75116); test: ROCK2 kinase binding affinity, DiscoverX KINOMEscan KdELECT
T2 construct: T7 phage fusion (kinase-tagged phage) or DNA tag for qPCR detection
T2 sequence (O75116 whole entry, the tested form may be a part): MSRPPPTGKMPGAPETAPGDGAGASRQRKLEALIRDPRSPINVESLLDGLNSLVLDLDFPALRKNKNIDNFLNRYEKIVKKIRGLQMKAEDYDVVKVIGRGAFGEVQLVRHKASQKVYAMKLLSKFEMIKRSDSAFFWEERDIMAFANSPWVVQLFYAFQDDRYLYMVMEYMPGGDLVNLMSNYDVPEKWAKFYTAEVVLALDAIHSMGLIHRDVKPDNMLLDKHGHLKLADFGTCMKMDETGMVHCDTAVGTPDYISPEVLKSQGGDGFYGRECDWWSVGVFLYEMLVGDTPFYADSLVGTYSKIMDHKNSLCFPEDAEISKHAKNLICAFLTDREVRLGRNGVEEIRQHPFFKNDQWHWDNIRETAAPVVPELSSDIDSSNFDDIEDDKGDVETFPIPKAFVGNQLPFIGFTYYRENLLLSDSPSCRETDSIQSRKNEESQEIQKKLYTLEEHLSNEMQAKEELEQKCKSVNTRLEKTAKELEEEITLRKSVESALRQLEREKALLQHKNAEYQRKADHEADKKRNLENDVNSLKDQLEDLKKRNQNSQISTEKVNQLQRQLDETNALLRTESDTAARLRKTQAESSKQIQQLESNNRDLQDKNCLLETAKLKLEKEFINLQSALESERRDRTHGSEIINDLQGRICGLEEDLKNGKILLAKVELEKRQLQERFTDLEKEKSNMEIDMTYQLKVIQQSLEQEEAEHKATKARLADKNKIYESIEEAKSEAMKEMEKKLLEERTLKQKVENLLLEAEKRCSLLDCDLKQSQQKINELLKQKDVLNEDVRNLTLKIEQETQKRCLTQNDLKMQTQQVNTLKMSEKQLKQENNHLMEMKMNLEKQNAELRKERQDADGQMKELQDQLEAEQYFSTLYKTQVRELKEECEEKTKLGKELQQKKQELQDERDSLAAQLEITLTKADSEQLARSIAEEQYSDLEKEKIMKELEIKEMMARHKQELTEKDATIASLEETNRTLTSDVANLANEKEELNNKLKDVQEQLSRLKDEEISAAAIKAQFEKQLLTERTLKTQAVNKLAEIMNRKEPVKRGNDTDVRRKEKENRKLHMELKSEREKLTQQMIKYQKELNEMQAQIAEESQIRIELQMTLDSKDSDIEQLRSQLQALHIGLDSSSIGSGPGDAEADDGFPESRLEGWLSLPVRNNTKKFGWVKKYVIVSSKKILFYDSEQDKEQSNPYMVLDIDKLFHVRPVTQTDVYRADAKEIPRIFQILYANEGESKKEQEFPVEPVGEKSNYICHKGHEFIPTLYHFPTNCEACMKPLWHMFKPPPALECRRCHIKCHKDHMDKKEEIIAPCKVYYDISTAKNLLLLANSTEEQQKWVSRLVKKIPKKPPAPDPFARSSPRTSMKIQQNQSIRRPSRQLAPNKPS
How it was run: as §1

[9] = male, C57BL/6, mouse, vena cava serum, mesylate salt, serum
[10] = male, C57BL/6, mouse, portal vein serum, po 10 mg/kg in 0.5% CMC suspension, mesylate salt, serum
[11] = 30 mg/kg IP twice-daily two weeks

Kd [3]: 0.1 to 0.99 µM | AUC [5, 9]: 145 ng·h/mL | Cmax [5, 9]: 258 nM | Cmax as multiple of Kd, in vena cava [5]: 318*Kd | F % in vena cava ([5]; mesylate salt): 4.6% | AUC [6, 10]: 697 ng·h/mL | Cmax [6, 10]: 1540 nM | oral bioavailability and liver entry ([6]; mice, po, portal vein versus vena cava): preferential liver entry | Cmax as multiple of Kd, in portal vein ([6]; po 10 mg/kg in 0.5% CMC suspension): 1904*Kd | F % in portal vein ([6]; po 10 mg/kg in 0.5% CMC suspension, mesylate salt): 22% | Kd ([8]; KINOMEscan KdELECT, 11-point 3-fold dilution, read-out: Kd (μM) ROCK2): < 0.01 µM | ROCK2 Selectivity ([8]; selectivity for ROCK2 over ROCK1 from Kd): **** (>500-fold selectivity for ROCK2)
Structure (SMILES): O[C@H]1CC[C@@H](Nc2nccc(-c3nccc(C#Cc4ccc5[nH]ncc5c4)n3)n2)CC1 [Ex. 65, (1s,4s)-4-((4-((1H-Indazol-5-yl)ethynyl)-[2,4′-bipyrimidin]-2′-yl)amino)cyclohexanol]
TGFβ1-induced gel contraction in hepatic stellate cells [1]: significantly attenuated | CTGF production in embryonic fibroblasts [2]: attenuated | hepatic lipid accumulation (liver steatosis) [4]: reduced | hepatic lipid accumulation (liver steatosis) ([4]; listed as compound 65): reduction | NAFLD activity score (NAS) [4]: reduced | NAFLD activity score (NAS) ([4]; listed as compound 65): reduction | hepatic levels of oncomiR-181a [7, 11]: reduced | hepatic levels of oncomiR-425 [7, 11]: reduced | Mean (disease + Ex. 65) mmu-miR-5123 ([7]; hepatic homogenates, mean control 3.22, disease 1.53): 3.54 | Mean (disease + Ex. 65) mmu-miR-871-3p ([7]; hepatic homogenates, mean control 4.08, disease 1.53): 7.98 | Mean (disease + Ex. 65) mmu-miR-7115-5p ([7]; hepatic homogenates, mean control 4.31, disease 8.54): 2.41 | Mean (disease + Ex. 65) mmu-let-7k ([7]; hepatic homogenates, mean control 9.04, disease 13.85): 7.72 | Mean (disease + Ex. 65) mmu-miR-93-3p ([7]; hepatic homogenates, mean control 39.45, disease 76.50): 46.52 | Mean (disease + Ex. 65) mmu-miR-542-5p ([7]; hepatic homogenates, mean control 66.04, disease 74.42): 39.03 | Mean (disease + Ex. 65) mmu-miR-27a-5p ([7]; hepatic homogenates, mean control 71.79, disease 98.65): 53.13 | Mean (disease + Ex. 65) mmu-miR-106a-5p ([7]; hepatic homogenates, mean control 115.29, disease 149.51): 114.11 | Mean (disease + Ex. 65) mmu-miR-125a-3p ([7]; hepatic homogenates, mean control 245.12, disease 297.02): 182.06 | Mean (disease + Ex. 65) mmu-miR-501-3p ([7]; hepatic homogenates, mean control 364.92, disease 489.94): 296.78 | Mean (disease + Ex. 65) mmu-miR-339-3p ([7]; hepatic homogenates, mean control 427.46, disease 502.07): 426.25 | Mean (disease + Ex. 65) mmu-miR-802-5p ([7]; hepatic homogenates, mean control 1094.11, disease 614.54): 899.47 | Mean (disease + Ex. 65) mmu-miR-322-3p ([7]; hepatic homogenates, mean control 1115.59, disease 1416.47): 949.59 | Mean (disease + Ex. 65) mmu-miR-17-3p ([7]; hepatic homogenates, mean control 1200.81, disease 1454.34): 1161.55 | Mean (disease + Ex. 65) mmu-miR-351-5p ([7]; hepatic homogenates, mean control 1248.83, disease 1603.84): 889.81 | Mean (disease + Ex. 65) mmu-miR-99b-5p ([7]; hepatic homogenates, mean control 1421.33, disease 1933.41): 1099.61 | Mean (disease + Ex. 65) mmu-miR-425-5p ([7]; hepatic homogenates, mean control 1716.15, disease 2037.69): 1524.04 | Mean (disease + Ex. 65) mmu-miR-181a-5p ([7]; hepatic homogenates, mean control 3789.12, disease 5124.26): 2941.29 | Mean (disease + Ex. 65) mmu-miR-320-3p ([7]; hepatic homogenates, mean control 4080.44, disease 5204.90): 3896.99 | Mean (disease + Ex. 65) mmu-miR-93-5p ([7]; hepatic homogenates, mean control 36188.01, disease 41626.66): 31184.61 | Mean (disease + Ex. 65) mmu-miR-143-3p ([7]; hepatic homogenates, mean control 67983.70, disease 80209.00): 58204.03 | Mean (disease + Ex. 65) mmu-miR-191-5p ([7]; hepatic homogenates, mean control 118228.91, disease 141957.68): 119365.71 | number of differentially expressed miRNAs of NASH livers corrected by treatment ([7]; of 65 differentially expressed miRNAs, 30 mg/kg IP twice-daily two weeks): 22
